Measurements as given in US9067896B2, “Crystalline forms of 3-(2,6-dichloro-3,5-dimethoxy-phenyl)-1-{6-[4-(4-ethyl-piperazin-1-yl) -phenylamino]-pyrimidin-4-yl}-1-methyl-urea and salts thereof” (Novartis AG, priority 2009, dated 2015).
Read-outs that look alike come from different tables or passages of the source.

Columns and labels:
[1] = Hygroscopicity from DVS sorption/desorption isotherms; assay type: physicochemical; settings: listed as anhydrous free base
Description: Hygroscopicity was measured from sorption/desorption isotherms using Surface Measurement System DVS-1 at 25±0.5° C. Samples were evaluated at various humidities including 75%, 85%, and 95%.
The free base (anhydrous and monohydrate) and its phosphate salt (form A) were subjected to sorption and desorption cycle using a VTI brand instrument. The solids were collected after the experiment and analyzed. […] The DVS plots are shown in FIGS. 4A (free base, anhydrous), 4B (phosphate salt (form A) and 4C (free base, monohydrate). The maximum water uptake for the phosphate salt (form A) was less than 2% (i.e. 0.7%) at 25° C. up to 95% relative humidity (rh) (see Table 9). The maximum water uptake for the monohydrate was less than 1.4% at 25° C. up to 95% RH. The monohydrate with an approximate water content of 3% could not be completely dried during the experiment but the water that could be removed was reversibly reabsorbed. The plateau of existence of the monohydrate form is found to be within 10% and 95% RH with a slight hysteresis at the second desorption cycle.

[2] = Pharmacokinetics / bioavailability in rats; assay type: in vivo; settings: rats; for half-life: read-out: t1/2 terminal elimination (converted); for Cmax: read-out: Cmax [μmol/L ± SE]
Description: The higher water solubility of the phosphate salt compared to the free base (and other acid salts, as described above) led to the development of a solution formulation (or composition), which would not be feasible with the free base due to solubility restrictions. For this experiment, the phosphate salt was prepared as follows. In a glass vial, 10.7 mg of the free base was dissolved in 4 ml THF. Phosphoric acid (1.76 ml) in acetone (0.01M) was added. The mixture was warmed to 50° C. for about 2 minutes. The vial was left open for partial evaporation at room temperature. Overnight, a suspension was formed, which was filtered yielding about 5.5 mg of an off-white powder. The bioavailabilities, in rats, of the active agents (the free base and its phosphate salt), formulated variously, are tabulated below (Table 10).

Solid state stability = assay type: physicochemical; settings: one week at 80° C., sealed containers and 75% relative humidity, alone and with excipients as 1% mixture, listed as anhydrous free base
Description: In the solid state, the samples were stressed for one week at 80° C., in sealed containers and under 75% relative humidity. […] The amount of degradation products of the anhydrous free base as assessed by HPLC was 1% or less (based on peak area), while the degradation of the phosphate salt accounted for 1.4% or less.

[3] = Polymorphic stability by XRPD (equilibration, crystallization, evaporation, precipitation, compression, granulation); assay type: physicochemical; settings: room temperature; water, ethanol, isopropanol, ethyl acetate, acetone
Description: Slurries of samples were stirred at high speed for 24 hours at 25±0.5° C., filtered, and the solid collected analyzed by XRPD.
About 20 mg of the phosphate salt (form A) was equilibrated with 2 ml of a variety of solvents for at least 24 h at room temperature. Then the solution was filtered and the residue dried overnight at 50° C. under house vacuum. The solid obtained was investigated by XRPD. […]
About 20 mg of the phosphate salt (form A) was also equilibrated at about 50° C. with 2 ml solvent for at least 24 h. Then the solution was filtered and the residue dried overnight at 50° C. under house vacuum. The solid obtained was investigated by XRPD.
About 20 mg of the phosphate salt (form A) was dissolved in 2 ml solvent at 60° C. The solution was filtered. The clear filtrate obtained was cooled in an ice bath and agitated. The precipitate was collected on a filter, dried and investigated by XRPD.
About 20 mg of the phosphate salt (form A) was mixed with 2 ml solvent at 25° C. After stirring overnight, the solution was filtered. The filtrate was placed under nitrogen flow to evaporate the solvent. The residual solid was collected and investigated. The above evaporation was performed without stirring. Upon evaporation from THF/water (1:1) without stirring, a solid with XRPD pattern similar to that of the B form (see FIG. 1C), was obtained once. Subsequently, under these conditions, amorphous material, rather than form B, was obtained.
The same experiments (as described above for the 25° C. evaporation) were performed at 50° C.
Two different solvent combinations were tested. The phosphate salt (form A) was dissolved in DMSO where its solubility was high. A solvent (the anti-solvent) in which the form A was highly insoluble was added to the solution. The precipitate was collected on a filter, dried, and investigated by XRPD.
The phosphate salt (form A, 300 mg) was compressed for 5 minutes at 4000 pounds with a hydraulic press (diameter of the tablets 8 mm).
A solvent (water or ethanol) was added drop wise to the phosphate salt (form A) placed in a mortar until the solid in the mortar was sufficiently wet, and ground using a pestle until a paste-like consistency was obtained. The paste was dried at around 40° C. and under reduced pressure for >8 hours.

[4] = rat, in vivo, iv, 5 mg/kg, i.v. [5 mg/kg]
[5] = rat, in vivo, po, 8.57 mg/kg, free base p.o., suspension (water containing 0.5% HPMC) [8.57 mg/kg]
[6] = rat, in vivo, po, 10 mg/kg, colloidal solution (water, ethanol and cremophor EL) [10 mg/kg]
[7] = rat, in vivo, po, 10 mg/kg, p.o., colloidal solution (water, ethanol and cremophor EL) [10 mg/kg]
[8] = free base p.o., suspension (water containing 0.5% HPMC) [8.57 mg/kg]
[9] = p.o., colloidal solution (water, ethanol and cremophor EL) [10 mg/kg]

## CCN1CCN(c2ccc(Nc3cc(N(C)C(=O)Nc4c(Cl)c(OC)cc(OC)c4Cl)ncn3)cc2)CC1 [Free Base, 3-(2,6-Dichloro-3,5-dimethoxy-phenyl)-1-{6-[4-(4-ethyl-piperazin-1-yl)-phenylamino]-pyrimidin-4-yl}-1-methyl-urea]
[1]
  hygroscopicity (in words): slightly hygroscopic
[2]; [4]
  AUC(0-inf): 2.47 µM·h
  half-life: 4.5 h
[2]; rat, in vivo, iv, 5 mg/kg, i.v. [5 mg/kg], read-out: C5 min [μmol/L ± SE]
  concentration at 5 min: 0.972 ± 0.404 µmol/L
[2]; rat, in vivo, iv, 5 mg/kg, i.v. [5 mg/kg], read-out: Clast [μmol/L ± SE]
  concentration at 24 h: 0.003 ± 0.003 µmol/L
[2]; rat, in vivo, iv, i.v. [5 mg/kg]
  clearance: 60 mL/min/kg
[2]; rat, in vivo, iv, i.v. [5 mg/kg], read-out: Vss
  Vd: 9.6 L/kg
[2]; [5]
  AUC(0-inf): 1.55 µM·h
  Tmax: 2 h
  Cmax: 0.202 ± 0.021 µmol/L
  half-life: 4.3 h
[2]; rat, in vivo, po, 8.57 mg/kg, free base p.o., suspension (water containing 0.5% HPMC) [8.57 mg/kg], read-out: Clast [μmol/L ± SE]
  concentration at 8 h: 0.077 ± 0.038 µmol/L
[2]; [6]
  AUC(0-inf): 1.44 µM·h
  Tmax: 3 h
[2]; rat, in vivo, po, 10 mg/kg, p.o., colloidal solution (water, ethanol and cremophor EL) [10 mg/kg], read-out: Clast [μmol/L ± SE]
  concentration at 24 h: 0.01 ± 0.005 µmol/L
[2]; [7]
  Cmax: 0.154 ± 0.026 µmol/L
  half-life: 5.2 h
[2]; [8]
  AUC (0-∞) dose ^A [(h · μmol/L)/(mg/kg)]: 0.18 (h · μmol/L)/(mg/kg)
  BAV f [%]: 37 ± 11%
  tlast: 8 h
[2]; i.v. [5 mg/kg]
  AUC (0-∞) dose ^A [(h · μmol/L)/(mg/kg)]: 0.49 (h · μmol/L)/(mg/kg)
  tlast: 24 h
[2]; [9]
  AUC (0-∞) dose ^A [(h · μmol/L)/(mg/kg)]: 0.14 (h · μmol/L)/(mg/kg)
  BAV f [%]: 29%
  tlast: 24 h
Solid state stability
  amount of degradation products by HPLC (peak area): ≤ 1%
[3]
  XRPD after equilibration with solvents: No new XRPD pattern was observed
